{"source": "patent US8545834B2", "about": "“G-substrate for the treatment and prevention of parkinson's disease” (The McLean Hospital Corporation, priority 2007, dated 2013)", "key": {"TH-positive neurons": {"test_system": "TH-positive neurons", "experiment": "Transduction of midbrain TH-positive neurons after intra-nigral lentivirus injection", "assay_type": "in vivo, rat", "conditions": "naïve rats; compared to GFP-transduced rats", "method": "A lentivirus encoding G-substrate (Lenti G-substrate) was stereotactically injected immediately dorsal to the substantia nigra in rats. The transduction efficiency of the lentivirus was then determined. Lenti G-substrate was transduced into TH-positive neurons to varying degrees depending upon the neuroanatomical level.\nRats received two 2.75 μl stereotaxic injections of either lenti-empty vector+lenti-eGFP (n=19), lenti-G substrate+lenti-eGFP (n=19), or lenti-YFP (n=14) and delivered at a rate of 0.2 μl/min using microinfusion pumps (Stoelting Co, Wood Dale, Ill.) with 10 min wait times after each injection. […]\nEstimates of TH-positive neuronal number within the SN were performed using Stereo Investigator™ software (MBF Bioscience, Williston, Vt.) and stereologic principles (West et al., J. Comp. Neurol. 296: 1-22, 1990). […] For each tissue section analyzed, section thickness was assessed empirically and guard zones of 2 μm thickness were used at the top and bottom of each section. The SN was outlined under low magnification (2.5×) and approximately 50% of the outlined region was analyzed using a systematic random sampling design generated with the following stereologic parameters: grid size, 200×200 μm; counting frame size, 153×140 μm; and dissector height, 16 μm. […]"}, "BE(2)-M17 cells": {"test_system": "BE(2)-M17 cells", "experiment": "In vitro protection assays (MTS cell viability, LDH release) against neurotoxins", "assay_type": "cell-based, human", "conditions": "lentiviral overexpression in BE(2)-M17 cells, toxin 20 hrs", "method": "Viability of the M17 cells was assessed following exposure to a variety of neurotoxins, each representing different aspects of PD pathology. 6-hydroxydopamine (6-OHDA) causes oxidative stress. MG-132 induces proteasome inhibition. And, MPP+ causes mitochondrial dysfunction by inhibiting Complex I. Cytotoxicity of M17 cells was determined using both cell viability assays and LDH release. G-substrate overexpression in M17 cells was confirmed by Western blot analysis (FIG. 3A) and by immunocytochemistry (FIG. 3B).\nBE(2)-M17 cells were transduced with lentivirus expressing control or G-substrate with a multiplicity of infection 15. Cells were grown in Optimem™ (Invitrogen, Carlsbad, Calif.) supplemented with 10% heat-inactivated fetal calf serum (Hyclone, Logan, Utah), nonessential amino acid and sodium pyruvate. Cells were maintained at 37° C., in 5% CO2 humid atmosphere. For the bioassay, cells were plated in 96 well plates at 5000 per well. The next day, cells were treated with various concentrations of 6-OHDA (Sigma), MG-132 (Calbiochem) and MPP+ (Sigma) for 20 hrs. The supernatant was used to determine cytotoxicity using LDH release assay kit (Roche, Indianapolis, Ind.) and the cells remaining on the plate was used to determine cell viability using MTS based solution, CellTiter 96 AQueous One™ solution cell proliferation assay (Promega, Madison, Wis.).\nThree different siRNAs for human G-substrate as described herein, a negative control siRNA, and a validated Akt siRNA (Ambion; Austin, Tex.) were used. Cells were plated in 96 well plates at 5000 per well with siRNAs and siPORT NeoFX transfection agent (Ambion, Austin, Tex.). After 48 hrs of incubation with siRNAs, each of the toxicants (6-OHDA, MG-132 or MPP+) were applied to the cells. Cell viability and cytotoxicity was measured after 20 hrs of toxin exposure."}}, "data": [{"substance": "G-substrate: human wild type G-substrate (SEQ ID NO.: 1) overexpressed from a lentiviral vector", "values": [{"measurement": "total number of TH-positive neurons in midbrain", "setting": "TH-positive neurons", "value": "did not alter"}, {"measurement": "protection against MPP+-induced toxicity (cell viability, LDH release)", "setting": "BE(2)-M17 cells", "value": "neither wild-type nor T123A mutant G-substrate overexpression was protective"}, {"measurement": "neuroprotection against 6-OHDA toxicity (cell viability, LDH release)", "setting": "BE(2)-M17 cells; compared to control", "value": "neuroprotective"}, {"measurement": "neuroprotection against MG-132 toxicity (cell viability, LDH release)", "setting": "BE(2)-M17 cells; compared to control", "value": "neuroprotective"}]}]}
